Test results: the NIST ThermoML archive (doi:10.1021/je700260f)

Details: Liquid, Vibrating tube method

FC(C(F)(F)F)C(F)(F)F [1,1,1,2,3,3,3-heptafluoropropane]
Details | mass density [kg/m3]
333.13 K, 4181 kPa | 1264.9
333.13 K, 4207 kPa | 1265.2
333.13 K, 4241 kPa | 1265.8
333.13 K, 4278 kPa | 1266.2
333.13 K, 4309 kPa | 1266.6
333.13 K, 4338 kPa | 1266.8
333.13 K, 4364 kPa | 1267.4
333.13 K, 4398 kPa | 1267.7
333.13 K, 4432 kPa | 1268.2
333.13 K, 4463 kPa | 1268.6
333.13 K, 4762 kPa | 1272.2
333.13 K, 4802 kPa | 1272.8
333.13 K, 4834 kPa | 1273.3
333.13 K, 4861 kPa | 1273.7
333.13 K, 4893 kPa | 1274.1
333.13 K, 4916 kPa | 1274.2
333.13 K, 4947 kPa | 1274.6
333.13 K, 4988 kPa | 1275.2
333.13 K, 5015 kPa | 1275.4
333.13 K, 5055 kPa | 1275.9
333.13 K, 5086 kPa | 1276.3
333.13 K, 5123 kPa | 1276.9
333.13 K, 5155 kPa | 1277.2
333.13 K, 5191 kPa | 1277.7
333.13 K, 5224 kPa | 1277.9
333.13 K, 5261 kPa | 1278.4
333.13 K, 5294 kPa | 1278.8
333.13 K, 5325 kPa | 1279.1
333.13 K, 5365 kPa | 1279.6
333.13 K, 5432 kPa | 1280.3
333.13 K, 5541 kPa | 1281.7
333.13 K, 5612 kPa | 1282.4
333.13 K, 5635 kPa | 1282.8
333.13 K, 5673 kPa | 1283.2
333.13 K, 25651 kPa | 1419.9
333.13 K, 25679 kPa | 1419.9
333.13 K, 25788 kPa | 1420.5
333.13 K, 27375 kPa | 1427.5
333.13 K, 27408 kPa | 1427.7
333.13 K, 27436 kPa | 1427.8
333.13 K, 33941 kPa | 1454.3
333.13 K, 33977 kPa | 1454.4
333.13 K, 34019 kPa | 1454.5
333.13 K, 34054 kPa | 1454.8
333.13 K, 34100 kPa | 1454.9
333.13 K, 34136 kPa | 1455
333.14 K, 1234 kPa | 1218
333.14 K, 1254 kPa | 1218.5
333.14 K, 1281 kPa | 1218.9
333.14 K, 1309 kPa | 1219.4
333.14 K, 1332 kPa | 1220.1
333.14 K, 1355 kPa | 1220.5
333.14 K, 1386 kPa | 1221.1
333.14 K, 1403 kPa | 1221.3
333.14 K, 1427 kPa | 1221.8
333.14 K, 1448 kPa | 1222.1
333.14 K, 1472 kPa | 1222.6
333.14 K, 1496 kPa | 1223.2
333.14 K, 1520 kPa | 1223.5
333.14 K, 1540 kPa | 1223.9
333.14 K, 1568 kPa | 1224.4
333.14 K, 1593 kPa | 1224.9
333.14 K, 1614 kPa | 1225.4
333.14 K, 2164 kPa | 1235.1
333.14 K, 2189 kPa | 1235.5
333.14 K, 2224 kPa | 1236.1
333.14 K, 2254 kPa | 1236.5
333.14 K, 2277 kPa | 1237
333.14 K, 2308 kPa | 1237.5
333.14 K, 2330 kPa | 1237.9
333.14 K, 2385 kPa | 1238.7
333.14 K, 2413 kPa | 1239.2
333.14 K, 2434 kPa | 1239.4
333.14 K, 2460 kPa | 1240
333.14 K, 2489 kPa | 1240.4
333.14 K, 2516 kPa | 1240.8
333.14 K, 2546 kPa | 1241.2
333.14 K, 2576 kPa | 1241.8
333.14 K, 2634 kPa | 1242.8
333.14 K, 2657 kPa | 1243.2
333.14 K, 2684 kPa | 1243.6
333.14 K, 2716 kPa | 1244.1
333.14 K, 2981 kPa | 1248.1
333.14 K, 3011 kPa | 1248.6
333.14 K, 3038 kPa | 1249
333.14 K, 3071 kPa | 1249.5
333.14 K, 3107 kPa | 1249.9
333.14 K, 3140 kPa | 1250.4
333.14 K, 3169 kPa | 1251
333.14 K, 3205 kPa | 1251.4
333.14 K, 4501 kPa | 1269.1
333.14 K, 4531 kPa | 1269.4
333.14 K, 4566 kPa | 1269.9
333.14 K, 4601 kPa | 1270.4
333.14 K, 4623 kPa | 1270.6
333.14 K, 4661 kPa | 1271
333.14 K, 4697 kPa | 1271.7
333.14 K, 4727 kPa | 1272
333.14 K, 5403 kPa | 1280.1
333.14 K, 5469 kPa | 1280.8
333.14 K, 5503 kPa | 1281.2
333.14 K, 5584 kPa | 1282.2
333.14 K, 5709 kPa | 1283.6
333.14 K, 5750 kPa | 1283.9
333.14 K, 5782 kPa | 1284.4
333.14 K, 5815 kPa | 1284.8
333.14 K, 5845 kPa | 1285.1
333.14 K, 5879 kPa | 1285.5
333.14 K, 5908 kPa | 1285.8
333.14 K, 5941 kPa | 1286.1
333.14 K, 5970 kPa | 1286.4
333.14 K, 6009 kPa | 1287
333.14 K, 6052 kPa | 1287.3
333.14 K, 6090 kPa | 1287.8
333.14 K, 6133 kPa | 1288.1
333.14 K, 6158 kPa | 1288.5
333.14 K, 6191 kPa | 1289
333.14 K, 6216 kPa | 1289.2
333.14 K, 6250 kPa | 1289.5
333.14 K, 6472 kPa | 1291.9
333.14 K, 6498 kPa | 1292.3
333.14 K, 6533 kPa | 1292.6
333.14 K, 6555 kPa | 1292.7
333.14 K, 6594 kPa | 1293.3
333.14 K, 6633 kPa | 1293.6
333.14 K, 6668 kPa | 1293.9
333.14 K, 6702 kPa | 1294.2
333.14 K, 6728 kPa | 1294.7
333.14 K, 6758 kPa | 1295
333.14 K, 6922 kPa | 1296.7
333.14 K, 7050 kPa | 1297.8
333.14 K, 7081 kPa | 1298.2
333.14 K, 7125 kPa | 1298.6
333.14 K, 7151 kPa | 1299
333.14 K, 7182 kPa | 1299.2
333.14 K, 7209 kPa | 1299.5
333.14 K, 7243 kPa | 1299.9
333.14 K, 7278 kPa | 1300.2
333.14 K, 7311 kPa | 1300.4
333.14 K, 7341 kPa | 1300.7
333.14 K, 7368 kPa | 1301.1
333.14 K, 7402 kPa | 1301.4
333.14 K, 7424 kPa | 1301.7
333.14 K, 7460 kPa | 1302.1
333.14 K, 7496 kPa | 1302.4
333.14 K, 7527 kPa | 1302.6
333.14 K, 7559 kPa | 1303
333.14 K, 7590 kPa | 1303.3
333.14 K, 7632 kPa | 1303.7
333.14 K, 7670 kPa | 1304.1
333.14 K, 7702 kPa | 1304.3
333.14 K, 7735 kPa | 1304.7
333.14 K, 7767 kPa | 1305.1
333.14 K, 7795 kPa | 1305.2
333.14 K, 7826 kPa | 1305.5
333.14 K, 7864 kPa | 1305.9
333.14 K, 7893 kPa | 1306.1
333.14 K, 7930 kPa | 1306.5
333.14 K, 7957 kPa | 1306.8
333.14 K, 7996 kPa | 1307.2
333.14 K, 8029 kPa | 1307.4
333.14 K, 8057 kPa | 1307.7
333.14 K, 8080 kPa | 1307.9
333.14 K, 25452 kPa | 1419
333.14 K, 25486 kPa | 1419
333.14 K, 25524 kPa | 1419.3
333.14 K, 25553 kPa | 1419.5
333.14 K, 25586 kPa | 1419.6
333.14 K, 25615 kPa | 1419.7
333.14 K, 25704 kPa | 1419.9
333.14 K, 25735 kPa | 1420.1
333.14 K, 25762 kPa | 1420.4
333.14 K, 25814 kPa | 1420.7
333.14 K, 25854 kPa | 1420.9
333.14 K, 25874 kPa | 1420.9
333.14 K, 25917 kPa | 1421.1
333.14 K, 25950 kPa | 1421.3
333.14 K, 25976 kPa | 1421.4
333.14 K, 26005 kPa | 1421.5
333.14 K, 26036 kPa | 1421.6
333.14 K, 26069 kPa | 1421.8
333.14 K, 26295 kPa | 1422.8
333.14 K, 26327 kPa | 1422.9
333.14 K, 26353 kPa | 1423.1
333.14 K, 26386 kPa | 1423.1
333.14 K, 26411 kPa | 1423.3
333.14 K, 26444 kPa | 1423.3
333.14 K, 26469 kPa | 1423.6
333.14 K, 26504 kPa | 1423.7
333.14 K, 27209 kPa | 1426.8
333.14 K, 27239 kPa | 1427
333.14 K, 27284 kPa | 1427.1
333.14 K, 27317 kPa | 1427.3
333.14 K, 27346 kPa | 1427.5
333.14 K, 27465 kPa | 1428
333.14 K, 27494 kPa | 1428
333.14 K, 27531 kPa | 1428.3
333.14 K, 27561 kPa | 1428.5
333.14 K, 27595 kPa | 1428.4
333.14 K, 28013 kPa | 1430.3
333.14 K, 28047 kPa | 1430.5
333.14 K, 28080 kPa | 1430.6
333.14 K, 28109 kPa | 1430.9
333.14 K, 28138 kPa | 1430.9
333.14 K, 28167 kPa | 1431
333.14 K, 28201 kPa | 1431.2
